Where two headings read alike, the source gives them in different places.
Key:
B-Raf [1] = target: B-Raf (Homo sapiens (Human), UniProt P15056); experiment: B-Raf kinase activity biochemical assay (AlphaScreen, biotin-MEK1 phosphorylation); conditions: B-Raf
Protocol: (§1) Compounds to be tested are diluted in dimethyl sulfoxide to a concentration of 0.1 mM. These are serially diluted 15 μL into 30 μL of dimethyl sulfoxide seven times in 96 well plates for a total of 8 dilution points, and for each dilution point 1 μL is added to a well of an assay plate. […] The reaction is started with addition of 10 μL of 200 μM ATP (i.e. final 100 μM ATP). After incubation of the kinase reaction for 45 minutes at room temperature, 5 μL/well of Stop Solution is added (25 mM Hepes pH 7.5, 100 mM EDTA, 0.01% BSA with donor beads (Streptavidin coated beads, Perkin Elmer), acceptor beads (Protein A coated, Perkin Elmer), and anti phosphor MEK1/2 antibody (CellSignal), each at final concentration 10 μg/mL). The plates are incubated for 3 hours at room temperature and read on Envision reader (Perkin Elmer). […] The signal vs. compound concentration is used to determine the IC50.

B-Raf [2] = experiment: as above; conditions: for Biochemical activity ratio B/V600E: ratio of IC50 B-Raf / B-Raf V600E; for Biochemical activity ratio B/C: ratio of IC50 B-Raf / c-Raf-1
Protocol: as §1

B-Raf V600E = B-Raf V600E (Homo sapiens (Human), UniProt P15056, V600E); experiment: B-Raf V600E kinase activity biochemical assay (AlphaScreen, biotin-MEK1 phosphorylation); conditions: for IC50: B-Raf V600E; for Biochemical activity ratio V600E/C: ratio of IC50 B-Raf V600E / c-Raf-1
Protocol: as §1

c-Raf-1 = c-Raf-1 (Homo sapiens, UniProt P04049); experiment: c-Raf-1 kinase activity biochemical assay (AlphaScreen, biotin-MEK1 phosphorylation)
Protocol: as §1

[3] = Relative solubility by turbidity threshold concentration in aqueous buffers (pH 1.5, 4.5, 6.8, 7.4); format: physicochemical; conditions: for turbidity threshold (L, M, H) 1.4: pH 1.4 [sic] (method: SGF pH 1.5); for turbidity threshold (L, M, H) 4.5: pH 4.5 (SIF); for turbidity threshold (L, M, H) 6.8: pH 6.8 (SIF); for turbidity threshold (L, M, H) 7.4: pH 7.4 (HEPES)
How it was run: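 Solubility class (high >250 μM, moderate 31.3–250 μM, low <31.3 μM) comes from the concentration where absorbance reaches a 0.01 threshold, averaged across 490/535/650 nm. Samples were compound dilutions from DMSO stock, 1 μL into 99 μL buffer at pH 1.5, 4.5, 6.8 or 7.4.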

CYP1A2 = CYP1A2 (Homo sapiens (Human), UniProt P05177); experiment: CYP enzyme inhibition, fluorescent substrate (CEC)
Protocol: (§2) CYP (Cytochrome P450) enzymes are the major drug metabolizing enzymes present in the liver. The inhibition of CYP enzyme activity (IC50) for each of CYP1A2, CYP2C19, CYP2C9, CYP2D6, CYP3A4(BFC) and CYP3A4(BQ) is determined for compounds, where inhibition of metabolism of a known substrate leads to a decrease in the fluorescence of the metabolized product. The fluorescence of the product is monitored as a function of compound concentration.
(§3) Compounds are dissolved in dimethyl sulfoxide to a concentration of 100 mM. These are diluted 1 μL into 82 μL of acetonitrile. An 11 μL aliquot of this solution is then added to 204 μL of cofactor mix (1.3% NADPH Regeneration system Solution A, 1.04% NADPH Regeneration system Solution B from BD Biosciences, 5% acetonitrile and 0.05% dimethyl sulfoxide). These are then serially diluted 1:1 (160 μL to 160 μL co-factor mix) for a total of 10 points. A 10 μL aliquot of this final mixture is dispensed into 384 well assay plates and incubated for 10 minutes at 37° C. Enzyme and substrate mix (10 μL; 0.5 pmol CYP1A2/5 μM CEC; 1.0 pmol CYP2C9/75 μM MFC; 0.5 pmol CYP2C19/25 μM CEC; 1.5 pmol CYP2D6/1.5 μM AMMC; 1.0 pmol CYP3A4/50 μM BFC; or 1.0 pmol CYP3A4/40 μM BQ) is added to these assay plates. Assay plates are incubated at 37° C. (CYP1A2-15 min; CYP2C9-45 min; CYP2C19, 2D6 and 3A4-30 min) and read in a Tecan Safire 2 plate reader (CYP1A2, 2C19 and 3A4 409 ex/460 em; CYP2C9 and 2D6 409 ex/530 em). The signal versus compound concentration is used to determine the IC50. The enzymes and substrates for this assay are obtained from BD Biosciences.

CYP2C19 = CYP2C19 (Homo sapiens (Human), UniProt P33261); experiment: CYP enzyme inhibition, fluorescent substrate (CEC)
Protocol: as §2
(§4) Compounds are dissolved in dimethyl sulfoxide to a concentration of 100 mM. These are diluted 1 μL into 82 μL of acetonitrile. […] These are then serially diluted 1:1 (160 μL to 160 μL co-factor mix) for a total of 10 points. A 10 μL aliquot of this final mixture is dispensed into 384 well assay plates and incubated for 10 minutes at 37° C. […] Assay plates are incubated at 37° C. […] The signal versus compound concentration is used to determine the IC50. The enzymes and substrates for this assay are obtained from BD Biosciences.

CYP2C9 = CYP2C9 (Homo sapiens (Human), UniProt P11712); experiment: CYP enzyme inhibition, fluorescent substrate (MFC)
Protocol: as §2, §4

CYP2D6 = CYP2D6 (Homo sapiens (Human), UniProt P10635); experiment: CYP enzyme inhibition, fluorescent substrate (AMMC); format: in vitro ADME; conditions: read-out: Cyp IC50 2D6
Protocol: as §2, §3

CYP3A4(BFC) = CYP3A4(BFC) (Homo sapiens (Human), UniProt P08684); experiment: CYP enzyme inhibition, fluorescent substrate BFC
Protocol: as §2, §4

[4] = read-out: Cyp IC50 2C9, CYP2C9, substrate MFC
[5] = read-out: Cyp IC50 3A4(BFC), CYP3A4, substrate BFC
[6] = read-out: Cyp IC50 2C19, CYP2C19, substrate CEC
[7] = read-out: Cyp IC50 1A2, CYP1A2, substrate CEC

CYP2C9, sequence (P11712 whole entry): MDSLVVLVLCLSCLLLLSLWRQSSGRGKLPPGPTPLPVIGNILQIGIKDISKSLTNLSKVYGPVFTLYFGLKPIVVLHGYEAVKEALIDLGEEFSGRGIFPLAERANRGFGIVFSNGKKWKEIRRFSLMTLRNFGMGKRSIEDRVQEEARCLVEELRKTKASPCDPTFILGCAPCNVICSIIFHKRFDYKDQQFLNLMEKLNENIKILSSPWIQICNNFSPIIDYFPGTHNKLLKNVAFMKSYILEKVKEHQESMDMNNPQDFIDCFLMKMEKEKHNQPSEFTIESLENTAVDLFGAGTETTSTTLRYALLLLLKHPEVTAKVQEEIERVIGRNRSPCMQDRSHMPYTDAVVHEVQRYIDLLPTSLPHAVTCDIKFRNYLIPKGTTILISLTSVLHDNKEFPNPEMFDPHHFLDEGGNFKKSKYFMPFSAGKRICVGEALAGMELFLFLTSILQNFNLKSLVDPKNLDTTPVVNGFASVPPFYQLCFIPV
B-Raf V600E, sequence (P15056 whole entry V600E): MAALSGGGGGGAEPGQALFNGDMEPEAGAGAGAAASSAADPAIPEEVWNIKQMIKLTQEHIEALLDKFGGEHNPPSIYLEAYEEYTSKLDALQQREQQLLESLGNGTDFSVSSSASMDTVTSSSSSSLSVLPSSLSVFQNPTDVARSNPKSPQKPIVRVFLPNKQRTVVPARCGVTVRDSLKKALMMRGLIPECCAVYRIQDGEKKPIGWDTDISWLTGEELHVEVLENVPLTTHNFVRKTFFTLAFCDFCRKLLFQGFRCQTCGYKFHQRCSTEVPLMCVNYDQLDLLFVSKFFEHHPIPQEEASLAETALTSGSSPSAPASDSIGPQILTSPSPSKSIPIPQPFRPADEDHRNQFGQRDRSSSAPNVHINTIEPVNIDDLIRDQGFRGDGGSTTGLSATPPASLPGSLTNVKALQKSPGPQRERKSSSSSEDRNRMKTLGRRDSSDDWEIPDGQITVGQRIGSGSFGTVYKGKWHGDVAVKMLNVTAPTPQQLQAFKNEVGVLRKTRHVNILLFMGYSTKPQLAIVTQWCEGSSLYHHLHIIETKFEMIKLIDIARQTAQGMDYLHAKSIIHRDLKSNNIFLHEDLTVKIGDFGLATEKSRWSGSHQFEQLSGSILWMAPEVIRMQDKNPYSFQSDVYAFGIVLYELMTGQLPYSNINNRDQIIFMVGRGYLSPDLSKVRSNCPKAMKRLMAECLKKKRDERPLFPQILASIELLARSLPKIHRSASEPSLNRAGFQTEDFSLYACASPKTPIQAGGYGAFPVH
CYP2C19, sequence (P33261 whole entry): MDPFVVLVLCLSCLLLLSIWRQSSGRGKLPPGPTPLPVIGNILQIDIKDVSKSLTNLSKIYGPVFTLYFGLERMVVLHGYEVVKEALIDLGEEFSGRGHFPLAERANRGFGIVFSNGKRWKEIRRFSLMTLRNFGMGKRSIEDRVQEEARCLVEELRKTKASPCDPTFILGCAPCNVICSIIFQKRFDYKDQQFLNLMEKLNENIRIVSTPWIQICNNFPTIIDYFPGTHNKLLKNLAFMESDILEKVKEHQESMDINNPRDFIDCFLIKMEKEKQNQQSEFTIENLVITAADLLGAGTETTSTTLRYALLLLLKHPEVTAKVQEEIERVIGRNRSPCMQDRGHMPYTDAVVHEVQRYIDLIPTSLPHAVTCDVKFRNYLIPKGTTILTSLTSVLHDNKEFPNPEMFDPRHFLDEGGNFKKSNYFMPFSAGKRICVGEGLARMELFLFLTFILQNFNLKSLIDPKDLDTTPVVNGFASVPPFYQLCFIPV
B-Raf (Homo sapiens (Human), UniProt P15056), sequence (P15056 whole entry): as the sequence (P15056 whole entry V600E) above, with E600V counted along it
CYP3A4(BFC), sequence (P08684 whole entry): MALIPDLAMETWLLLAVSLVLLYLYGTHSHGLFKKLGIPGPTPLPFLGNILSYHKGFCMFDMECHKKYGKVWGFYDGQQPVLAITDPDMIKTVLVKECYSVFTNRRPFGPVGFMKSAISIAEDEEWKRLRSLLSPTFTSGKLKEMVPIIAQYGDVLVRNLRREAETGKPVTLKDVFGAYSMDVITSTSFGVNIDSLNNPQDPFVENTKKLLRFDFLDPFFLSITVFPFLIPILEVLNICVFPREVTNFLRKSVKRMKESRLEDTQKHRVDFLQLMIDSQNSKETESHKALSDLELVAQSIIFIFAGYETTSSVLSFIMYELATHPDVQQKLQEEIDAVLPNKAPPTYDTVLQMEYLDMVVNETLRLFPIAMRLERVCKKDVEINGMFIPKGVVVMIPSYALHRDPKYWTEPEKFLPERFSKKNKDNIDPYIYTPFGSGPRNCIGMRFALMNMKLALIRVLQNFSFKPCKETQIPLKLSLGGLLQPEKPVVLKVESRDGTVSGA
c-Raf-1, sequence (P04049 whole entry, looked up): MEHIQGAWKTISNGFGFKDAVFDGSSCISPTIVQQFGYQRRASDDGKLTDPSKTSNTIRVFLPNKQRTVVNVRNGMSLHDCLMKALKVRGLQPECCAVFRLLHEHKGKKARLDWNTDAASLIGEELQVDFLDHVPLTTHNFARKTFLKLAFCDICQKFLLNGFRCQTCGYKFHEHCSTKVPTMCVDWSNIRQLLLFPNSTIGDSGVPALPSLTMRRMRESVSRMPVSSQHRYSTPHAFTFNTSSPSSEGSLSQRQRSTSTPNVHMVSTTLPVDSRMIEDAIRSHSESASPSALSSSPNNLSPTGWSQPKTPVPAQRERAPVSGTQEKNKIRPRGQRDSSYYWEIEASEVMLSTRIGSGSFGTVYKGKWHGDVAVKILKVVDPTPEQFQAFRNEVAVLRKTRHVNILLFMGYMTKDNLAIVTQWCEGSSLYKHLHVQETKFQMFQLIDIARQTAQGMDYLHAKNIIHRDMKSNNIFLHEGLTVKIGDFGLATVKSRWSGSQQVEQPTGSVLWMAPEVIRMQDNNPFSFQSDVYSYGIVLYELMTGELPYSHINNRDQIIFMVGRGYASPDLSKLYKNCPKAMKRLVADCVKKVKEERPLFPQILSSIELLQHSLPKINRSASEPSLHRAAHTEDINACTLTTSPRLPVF
CYP2D6, sequence (P10635 whole entry): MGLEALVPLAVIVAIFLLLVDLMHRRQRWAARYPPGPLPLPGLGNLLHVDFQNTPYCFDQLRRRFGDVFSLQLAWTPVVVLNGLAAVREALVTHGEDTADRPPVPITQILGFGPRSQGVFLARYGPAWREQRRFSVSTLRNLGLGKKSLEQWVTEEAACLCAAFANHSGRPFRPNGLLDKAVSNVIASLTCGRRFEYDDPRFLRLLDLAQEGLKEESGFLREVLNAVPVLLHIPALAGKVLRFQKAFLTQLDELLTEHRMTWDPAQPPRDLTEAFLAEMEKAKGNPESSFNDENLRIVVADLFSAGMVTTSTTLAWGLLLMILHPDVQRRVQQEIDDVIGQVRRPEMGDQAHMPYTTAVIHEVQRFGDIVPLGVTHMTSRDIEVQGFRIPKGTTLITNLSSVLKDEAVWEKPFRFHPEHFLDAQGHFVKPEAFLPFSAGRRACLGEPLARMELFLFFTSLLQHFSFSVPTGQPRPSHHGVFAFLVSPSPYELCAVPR
CYP1A2, sequence (P05177 whole entry): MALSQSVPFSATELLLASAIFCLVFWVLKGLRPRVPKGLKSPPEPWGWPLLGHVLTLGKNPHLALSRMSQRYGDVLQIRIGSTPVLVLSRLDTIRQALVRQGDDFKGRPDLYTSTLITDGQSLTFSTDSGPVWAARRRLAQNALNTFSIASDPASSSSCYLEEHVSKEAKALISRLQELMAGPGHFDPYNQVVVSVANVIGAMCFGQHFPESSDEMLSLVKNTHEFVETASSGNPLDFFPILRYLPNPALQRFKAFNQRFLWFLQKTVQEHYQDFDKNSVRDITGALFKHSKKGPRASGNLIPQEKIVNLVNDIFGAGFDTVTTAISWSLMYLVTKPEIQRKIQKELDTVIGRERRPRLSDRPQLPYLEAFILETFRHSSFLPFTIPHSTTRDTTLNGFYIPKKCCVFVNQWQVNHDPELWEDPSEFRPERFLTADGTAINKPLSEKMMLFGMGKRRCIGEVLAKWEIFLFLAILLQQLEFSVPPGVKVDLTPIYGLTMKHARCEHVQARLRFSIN

Row | Structure (SMILES) | IC50 (B-Raf [1]) [µM] | Biochemical activity ratio B/V600E (B-Raf [2]) | Biochemical activity ratio B/C (B-Raf [2]) | IC50 (B-Raf V600E) [µM] | Biochemical activity ratio V600E/C (B-Raf V600E) | IC50 (c-Raf-1) [µM] | turbidity threshold (L, M, H) 1.4 [3] | turbidity threshold (L, M, H) 4.5 [3] | turbidity threshold (L, M, H) 6.8 [3] | turbidity threshold (L, M, H) 7.4 [3] | IC50 (CYP1A2; human, 15 min) [µM] | IC50 (CYP2C19) [µM] | IC50 (CYP2C9; [4]) [µM] | IC50 (CYP2D6) [µM] | IC50 (CYP3A4(BFC); [5]) [µM] | IC50 (CYP2C19; [6]) [µM] | IC50 (CYP3A4(BFC)) [µM] | IC50 (CYP2C9) [µM] | IC50 (CYP1A2; [7]) [µM]
1 | CCNc1ncnc2[nH]cc(C(=O)c3c(F)ccc(NS(=O)(=O)c4ccc(C(F)(F)F)cc4)c3F)c12 [P-1024, N-[3-(4-Ethylamino-7H-pyrrolo[2,3-d]pyrimidine-5-carbonyl)-2,4-difluoro-phenyl]-4-trifluoromethyl-benzenesulfonamide] | < 0.1 | 0.1-10 | >10 | > 0.1 | >10 | < 0.1 | M (moderate solubility if the threshold concentration is 31.3 μM to 250 μM) | L (low solubility if the threshold concentration is <31.3 μM) | L (low solubility if the threshold concentration is <31.3 μM) | L (low solubility if the threshold concentration is <31.3 μM) | > 10 | 5 to 10 | > 10 | > 10 | > 10 | – | – | – | –
2 | COc1ncnc2[nH]cc(C(=O)c3c(F)ccc(NS(=O)(=O)c4cc(C)cc(C)c4)c3F)c12 [P-1025, N-[2,4-Difluoro-3-(4-methoxy-7H-pyrrolo[2,3-d]pyrimidine-5-carbonyl)-phenyl]-3,5-dimethyl-benzenesulfonamide] | > 0.1 | 0.1-10 | >10 | > 0.1 | 0.1-10 | < 0.1 | M (moderate solubility if the threshold concentration is 31.3 μM to 250 μM) | L (low solubility if the threshold concentration is <31.3 μM) | M (moderate solubility if the threshold concentration is 31.3 μM to 250 μM) | – | > 10 | – | > 10 | > 10 | – | > 10 | 5 to 10 | – | –
3 | CNc1ncnc2[nH]cc(C(=O)c3c(F)ccc(NS(=O)(=O)c4ccc(C(F)(F)F)cc4)c3F)c12 [P-1026, N-[2,4-Difluoro-3-(4-methylamino-7H-pyrrolo[2,3-d]pyrimidine-5-carbonyl)-phenyl]-4-trifluoromethyl-benzenesulfonamide] | > 0.1 | 0.1-10 | >10 | > 0.1 | >10 | < 0.1 | – | – | M (moderate solubility if the threshold concentration is 31.3 μM to 250 μM) | M (moderate solubility if the threshold concentration is 31.3 μM to 250 μM) | > 10 | – | > 10 | > 10 | > 10 | > 10 | – | – | –
4 | Cc1cc(C)cc(S(=O)(=O)Nc2ccc(F)c(C(=O)c3c[nH]c4ncnc(C)c34)c2F)c1 [P-1027, N-[2,4-Difluoro-3-(4-methyl-7H-pyrrolo[2,3-d]pyrimidine-5-carbonyl)-phenyl]-3,5-dimethyl-benzenesulfonamide] | > 0.1 | 0.1-10 | >10 | > 0.1 | 0.1-10 | < 0.1 | – | L (low solubility if the threshold concentration is <31.3 μM) | M (moderate solubility if the threshold concentration is 31.3 μM to 250 μM) | – | > 10 | – | > 10 | > 10 | > 10 | > 10 | – | – | –
5 | CC(C)COc1ncnc2[nH]cc(C(=O)c3c(F)ccc(NS(=O)(=O)c4ccc(C(F)(F)F)cc4)c3F)c12 [P-1028, N-[2,4-Difluoro-3-(4-isobutoxy-7H-pyrrolo[2,3-d]pyrimidine-5-carbonyl)-phenyl]-4-trifluoromethyl-benzenesulfonamide] | > 0.1 | 0.1-10 | >10 | > 0.1 | >10 | < 0.1 | M (moderate solubility if the threshold concentration is 31.3 μM to 250 μM) | L (low solubility if the threshold concentration is <31.3 μM) | L (low solubility if the threshold concentration is <31.3 μM) | M (moderate solubility if the threshold concentration is 31.3 μM to 250 μM) | > 10 | – | – | > 10 | > 10 | > 10 | – | 5 to 10 | –
6 | CC(C)c1ncnc2[nH]cc(C(=O)c3c(F)ccc(NS(=O)(=O)c4ccc(C(F)(F)F)cc4)c3F)c12 [P-1029, N-[2,4-Difluoro-3-(4-isopropyl-7H-pyrrolo[2,3-d]pyrimidine-5-carbonyl)-phenyl]-4-trifluoromethyl-benzenesulfonamide] | < 0.1 | 0.1-10 | >10 | > 0.1 | >10 | < 0.1 | M (moderate solubility if the threshold concentration is 31.3 μM to 250 μM) | – | – | M (moderate solubility if the threshold concentration is 31.3 μM to 250 μM) | – | 5 to 10 | – | > 10 | > 10 | – | – | 5 to 10 | > 10
7 | CCCc1ccc(S(=O)(=O)Nc2ccc(F)c(C(=O)c3c[nH]c4ncnc(O)c34)c2F)cc1 [P-1030, N-[2,4-Difluoro-3-(4-hydroxy-7H-pyrrolo[2,3-d]pyrimidine-5-carbonyl)-phenyl]-4-propyl-benzenesulfonamide] | > 0.1 | <0.1 | 0.1-10 | > 0.1 | >10 | < 0.1 | – | M (moderate solubility if the threshold concentration is 31.3 μM to 250 μM) | – | M (moderate solubility if the threshold concentration is 31.3 μM to 250 μM) | – | – | > 10 | > 10 | > 10 | > 10 | – | – | > 10

From patent US9617267B2, “Compounds and methods for kinase modulation, and indications therefor” (Plexxikon Inc., priority 2009, dated 2017)
